Measurements reported in patent US20160272635A1, “SUBSTITUTED DIHYDROPYRIDO[3,4-B]PYRAZINONES AS DUAL INHIBITORS OF BET PROTEINS AND POLO-LIKE KINASES” (BAYER PHARMA AKTIENGESELLSCHAFT, priority 2013, published 2016).
Like-named read-outs stand apart in the source and are kept apart here.

How the values were obtained:
MOLM-13 cell line = test: MOLM-13 cell proliferation assay (alamarBlue); format: cell-based; details: Homo sapiens; MOLM-13 cells, 96 hours incubation, inhibition of cell proliferation
Method: In accordance with the invention, the substances were tested for their ability to inhibit the proliferation of the MOLM-13 cell linie (Deutsche Sammlung far Mikroorganismen and Zellkulturen [German Collection of Microorganisms and Cell Cultures], ACC 554). Cell viability was determined by means of the alamarBlue® reagent (Invitrogen) in a Victor X3 Multilabel Reader (Perkin Elmer). The excitation wavelength was 530 nm and the emission wavelength […].
The MOLM-13 cells were shown at a density of 4000 cells/well in 100 μl of growth medium on 96-well microtitre plates. After overnight incubation at 37° C., the fluorescence values (CI values) were determined. The plates were then treated with various substance dilutions and incubated at 37° C. for 96 hours. Subsequently, the fluorescence values were determined (CO values). For the data analysis, the CI values were subtracted from the CO values and the results were compared between cells which had been treated with various dilutions of the substance or only with buffer solution. The IC50 values (substance concentration needed for 50% inhibition of cell proliferation) were calculated therefrom.

[1] = target: T1, BRD4 bromo domain 1 [BRD4(1)] (Homo sapiens, UniProt O60885); test: BRD4(1)/acetylated peptide H4 binding assay (TR-FRET); details: inhibition of interaction between BRD4(1) and acetylated histone H4 peptide
T1 construct: N-terminally His6-tagged BRD4(1) (amino acids 67-152); made in house; host or cells: E. coli
Description: To assess the BRD4(1) binding strength of the substances described in this application, the ability thereof to inhibit the interaction between BRD4(1) and acetylated histone H4 in a dose-dependent manner was quantified.
For this purpose, a time-resolved fluorescence resonance energy transfer (TR-FRET) assay was used, which measures the binding between N-terminally His6-tagged BRD4(1) (amino acids 67-152) and a synthetic acetylated histone H4 (Ac-H4) peptide with sequence GRGK(Ac)GGK(Ac)GLGK(Ac)GGAK(Ac)RHGSGSK-biotin. The recombinant BRD4(1) protein produced in-house according to Filippakopoulos et al., Cell, 2012, 149:214-231 was expressed in E. coli and purified by means of (Ni-NTA) affinity and (Sephadex G-75) size exclusion chromatography. The Ac-H4 peptide can be purchased, for example, from Biosyntan (Berlin, Germany).
In the assay, typically 11 different concentrations of each substance (0.1 nM, 0.33 nM, 1.1 nM, 3.8 nM, 13 nM, 44 nM, 0.15 μM, 0.51 μM, 1.7 μM, 5.9 μM and 20 μM) were analysed as duplicates on the same microtitre plate. For this purpose, 100-fold concentrated solutions in DMSO were prepared by serial dilutions (1:3.4) of a 2 mM stock solution into a clear, 384-well microtitre plate (Greiner Bio-One, Frickenhausen, Germany). From this, 50 n1 were transferred into a black test plate (Greiner Bio-One, Frickenhausen, Germany). The test was started by the addition of 2 μl of a 2.5-fold concentrated BRD4(1) solution (final concentration typically 10 nM in the 5 μl of reaction volume) in aqueous assay buffer [50 mM HEPES pH 7.5, 50 mM sodium chloride (NaCl), 0.25 mM CHAPS and 0.05% serum albumin (BSA)] to the substances in the test plate. This was followed by a 10-minute incubation step at 22° C. for the pre-equilibration of putative complexes between BRD4(1) and the substances.
The mixture was then incubated in the dark at 22° C. for one hour and then at 4° C. for at least 3 hours and for no longer than overnight. The formation of BRD4(1)/Ac-H4 complexes was determined by the measurement of the resonance energy transfer from the streptavidin-Eu cryptate to the anti-6His-XL665 antibody present in the reaction. For this purpose, the fluorescence emission was measured at 620 nm and 665 nm after excitation at 330-350 nm in a TR-FRET measuring instrument, for example a Rubystar or Pherastar (both from BMG Lab Technologies, Offenburg, Germany) or a Viewlux (Perkin-Elmer). The ratio of the emissions at 665 nm and at 622 nm was taken as an indicator of the amount of BRD4(1)/Ac-H4 complexes formed.
The data (ratios) obtained were normalized, with 0% inhibition corresponding to the mean from the measurements for a set of controls (typically 32 data points) in which all the reagents were present. In these, in place of test substances, 50 nl of DMSO (100%) were used Inhibition of 100% corresponded to the mean from the measurements for a set of controls (typically 32 data points) in which all the reagents except BRD4(1) were present. The IC50 was determined by regression analysis based on a 4-parameter equation (minimum, maximum, IC50, Hill; Y=Max+(Min−Max)/(1+(X/IC50)Hill).

Plk-1 = target: T2, Plk-1 (Homo sapiens, UniProt P53350); test: Plk-1 enzyme assay (indirect HTRF kinase assay); format: biochemical
T2 construct: Recombinant fusion protein consisting of GST and Plk (kinase domain 33-345); MW 36 kDa; GST; made in house; host or cells: insect cells (Hi5)
Method: Recombinant fusion protein consisting of GST and Plk (kinase domain 33-345; MW 36 kDa, conc 0.8 μg/μl) expressed from insect cells (Hi5) and purified by glutathione Sepharose affinity chromatography and subsequent gel filtration (Superdex 75) is used for the kinase assay. Aliquots thereof are frozen in liquid nitrogen and stored at −80° C. and, after thawing, used only once.
The assay used is an indirect HTRF assay which employs the following materials and procedures. The substrate used for the kinase reaction is the biotinylated peptide Btn-Ahx-KKLNRTLSFAEPG-amide x TFA from Biosyntan, Sample No.: 6178.1 (C-terminus in amide form). This is an artificial sequence not derived from any known protein. 50 nl of the test compounds dissolved in 100% dimethyl sulphoxide (DMSO) (final concentrations: 0 μM and concentrations in the range of 0.001-20 μM) are pre-incubated with 2 μl Plk-1 enzyme working solution in working buffer [25 mM MgCl2; 1 mM DTT; 50 mM Hepes pH 7.0; 0.01% NP40; 1× Complete; 0.05% BSA] for 30 min. The kinase reaction is then initiated by addition of 3 μl of substrate solution [adenosine triphosphate (ATP) and 1.4 μM substrate peptide (biotin-Ttds-KKLNRTLSFAEPG-NH2)] in working buffer, and, after 30 min, stopped by addition of a stopper solution (100 mM EDTA, 100 mM Hepes pH 7.5, 800 mM potassium fluoride, 0.12% BSA, 0.4 μM SA-XLent (0.05 μM, from CIS bio international, Marcoule, France), Eu^3+ cryptate-conjugated rabbit anti-mouse IgG (1.5 nM; an anti-mouse IgG antibody labelled with europium cryptate from CIS bio international, Marcoule, France), 1 nM anti-phospho-serine kinase (a phospho-specific antibody from Upstate Biotechnology, Dundee, Scotland), and incubated at 4° C. overnight.
For the test at low ATP concentration, a 1.25 ng/μl Plk-1 working solution and 16.7 μM ATP are used, for the test at high ATP concentration, a 0.039 ng/μl Plk-1 working solution and 16.7 mM ATP are used.
The amount of phosphorylated substrate peptide is then determined by measuring the resonance energy transfer from europium-labelled antibody complex to streptavidine-XLent. To this end, the fluorescence emission at 620 nm and 665 nm is measured following excitation at 350 nm in an HTRF measuring instrument, e.g. Rubystar (BMG Labtechnologies, Offenburg, Germany) or Viewlux (Perkin-Elmer). The ratio of the emissions at 665 nm and at 620 nm is taken as a measure of the amount of phosphorylated substrate peptide. The data are normalized (enzyme reaction without inhibitor=0% inhibition, all other assay components, but no enzyme=100% inhibition), and IC50 values are calculated using a 4 parameter equation (minimum, maximum, IC50, Hill; Y=max+(min−max)/(1+(X/IC50)Hill)).

[2] = 10 mM ATP (high ATP concentration), read-out: IC50 [Plk-1] (10 mM ATP)
[3] = 10 μM ATP (low ATP concentration), read-out: IC50 [Plk-1] (10 μM ATP)

T2 sequence (P53350 33-345): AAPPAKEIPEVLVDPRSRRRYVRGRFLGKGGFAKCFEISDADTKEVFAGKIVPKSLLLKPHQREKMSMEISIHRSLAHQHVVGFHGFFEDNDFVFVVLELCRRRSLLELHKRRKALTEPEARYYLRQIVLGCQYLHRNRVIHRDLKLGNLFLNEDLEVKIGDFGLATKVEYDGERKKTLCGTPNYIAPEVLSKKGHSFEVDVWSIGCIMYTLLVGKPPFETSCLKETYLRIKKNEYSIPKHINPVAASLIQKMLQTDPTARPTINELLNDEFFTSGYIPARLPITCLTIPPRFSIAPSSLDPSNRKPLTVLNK

| Compound | IC50 (MOLM-13 cell line) | IC50 [1] | IC50 (Plk-1; [2]) | IC50 (Plk-1; [3]) |
| --- | --- | --- | --- | --- |
| CC[C@@H]1C(=O)N(C)c2cnc(Nc3ncc(C(=O)NC4CCN(C)CC4)cc3OC)cc2N1C1CCCC1 [Example 14, 6-[[(2R)-1-Cyclopentyl-2-ethyl-1,2,3,4-tetrahydro-4-methyl-3-oxopyrido[3,4-b]pyrazin-7-yl]amino]-5-methoxy-N-(1-methyl-4-piperidinyl)-3-pyridinecarboxamide] | 0.032 µM | 0.458 µM | 0.029 µM | 0.011 µM |
| CC[C@@H]1C(=O)N(C)c2cnc(Nc3ncc(C(=O)N[C@@H]4CCCCNC4=O)cc3OC)cc2N1C1CCCC1 [Example 16, 6-[[(2R)-1-Cyclopentyl-2-ethyl-1,2,3,4-tetrahydro-4-methyl-3-oxopyrido[3,4-b]pyrazin-7-yl]amino]-N-[(3R)-hexahydro-2-oxo-1H-azepin-3-yl]-5-methoxy-3-pyridinecarboxamide] | 0.077 µM | 0.525 µM | 0.022 µM |  |
| CC[C@@H]1C(=O)N(C)c2cnc(Nc3ncc(C(=O)NC4CCOCC4)cc3C)cc2N1C1CCCC1 [Example 17, 6-{[(2R)-1-Cyclopentyl-2-ethyl-4-methyl-3-oxo-1,2,3,4-tetrahydropyrido[3,4-b]pyrazin-7-yl]amino}-5-methyl-N-(tetrahydro-2H-pyran-4-yl)pyridine-3-carboxamide] | 0.055 µM | 0.539 µM | 0.014 µM | 0.008 µM |
| CC[C@@H]1C(=O)N(C)c2cnc(Nc3ncc(C(=O)NC4CCN(C)CC4)cc3C)cc2N1C1CCCC1 [Example 18, 6-[[(2R)-1-Cyclopentyl-2-ethyl-1,2,3,4-tetrahydro-4-methyl-3-oxopyrido[3,4-b]pyrazin-7-yl]amino]-5-methyl-N-(1-methyl-4-piperidinyl)pyridine-3-carboxamide] | 0.042 µM | 0.649 µM | 0.007 µM |  |
| CC[C@@H]1C(=O)N(C)c2cnc(Nc3ncc(C4=NC(C)(C)CO4)cc3OC)cc2N1C1CCCC1 [Example 19, 1N-Cyclopentyl-7-[[5-(4,5-dihydro-4,4-dimethyl-2-oxazolyl)-3-methoxy-2-pyridinyl]amino]-(2R)-ethyl-4N-methyl-1,4-dihydropyrido[3,4-b]pyrazin-3(2H)-one] | 0.362 µM | 0.732 µM | 0.099 µM |  |
| CC[C@@H]1C(=O)N(C)c2cnc(Nc3ncc(C(=O)NC4CCCCC4)cc3OC)cc2N1C1CCCC1 [Example 20, N-Cyclohexyl-6-[[(2R)-1-cyclopentyl-2-ethyl-1,2,3,4-tetrahydro-4-methyl-3-oxopyrido[3,4-b]pyrazin-7-yl]amino]-5-methoxypyridine-3-carboxamide] | 0.101 µM | 0.878 µM | 0.035 µM |  |

Now from value to compound:

| IC50 (MOLM-13 cell line) | IC50 [1] | IC50 (Plk-1; [2]) | IC50 (Plk-1; [3]) | Compound |
| --- | --- | --- | --- | --- |
| 0.052 µM | 0.424 µM | 0.023 µM |  | CC[C@@H]1C(=O)N(C)c2cnc(Nc3ncc(C(=O)NCc4cccnc4)cc3OC)cc2N1C1CCCC1 [Example 12, 6-[[(2R)-1-Cyclopentyl-2-ethyl-1,2,3,4-tetrahydro-4-methyl-3-oxopyrido[3,4-b]pyrazin-7-yl]amino]-5-methoxy-N-(3-pyridinylmethyl)-3-pyridinecarboxamide] |
| 0.056 µM | 0.434 µM | 0.015 µM | 0.007 µM | CC[C@@H]1C(=O)N(C)c2cnc(Nc3ncc(C(=O)NC4CC4)cc3C)cc2N1C1CCCC1 [Example 13, 6-{[(2R)-1-Cyclopentyl-2-ethyl-4-methyl-3-oxo-1,2,3,4-tetrahydropyrido[3,4-b]pyrazin-7-yl]amino}-N-cyclopropyl-5-methylpyridine-3-carboxamide] |
| 0.077 µM | 0.496 µM | 0.022 µM | 0.013 µM | CC[C@@H]1C(=O)N(C)c2cnc(Nc3ncc(C(=O)N[C@@H]4CCCCNC4=O)cc3C)cc2N1C1CCCC1 [Example 15] |
